Data: PubChem BioAssay AID248 (DTP/NCI, 2004)
Values joined by “and” are separate entries in the source; they are usually repeats but may differ in a detail not shown here. Identical values can stand only once. Inconclusive results and toxic doses are left out. No stated cut-off is given here; in the data, active means T/C of 150% or more; inactive means T/C below 125%.

System: L1210 leukemia ip in BDF1 mice, survival T/C
Assay: NCI In Vivo Anticancer Drug Screen. Data for tumor model L1210 Leukemia (intraperitoneal) in B6D2F1 (BDF1) mice
Conditions: endpoint: mean survival time, higher = longer survival
Summary of the method: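 Read-out is survival time, reported as the treated-group measurement over the vehicle-control measurement.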

[1] = dose: 100.0 mg/kg/injection, schedule: Q01DX001 (ip), vehicle: saline
[2] = dose: 100.0 mg/kg/injection, schedule: Q01DX009 (ip), vehicle: Klucel (hydroxypropylcellulose) (HPC)
[3] = dose: 400.0 mg/kg/injection, schedule: Q01DX009 (ip), vehicle: Klucel (hydroxypropylcellulose) (HPC)
[4] = dose: 200.0 mg/kg/injection, schedule: Q01DX009 (ip), vehicle: Klucel (hydroxypropylcellulose) (HPC)
[5] = dose: 100.0 mg/kg/injection, schedule: Q01DX009 (ip), vehicle: saline with Tween-80
[6] = dose: 100.0 mg/kg/injection, schedule: Q04DX003 (ip), vehicle: saline with Tween-80
[7] = dose: 200.0 mg/kg/injection, schedule: Q01DX009 (ip), vehicle: saline with Tween-80
[8] = dose: 200.0 mg/kg/injection, schedule: Q04DX003 (ip), vehicle: saline with Tween-80
[9] = dose: 400.0 mg/kg/injection, schedule: Q04DX003 (ip), vehicle: saline with Tween-80
[10] = dose: 50.0 mg/kg/injection, schedule: Q04DX003 (ip), vehicle: saline with Tween-80
[11] = dose: 100.0 mg/kg/injection, schedule: Q04DX003 (ip), vehicle: Klucel (hydroxypropylcellulose) (HPC)
[12] = dose: 400.0 mg/kg/injection, schedule: Q04DX003 (ip), vehicle: Klucel (hydroxypropylcellulose) (HPC)
[13] = dose: 100.0 mg/kg/injection, schedule: Q01DX001 (ip), vehicle: other
[14] = dose: 200.0 mg/kg/injection, schedule: Q01DX001 (ip), vehicle: other
[15] = dose: 400.0 mg/kg/injection, schedule: Q01DX001 (ip), vehicle: other

Measured: T/C

NC(CCl)=NCC1C2CC3CC(C2)CC1C3 (stereo not drawn)
inactive: dose: 10.0 mg/kg/injection, schedule: Q01DX009 (ip), vehicle: saline 101 % of control | dose: 10.0 mg/kg/injection, schedule: Q04DX002 (ip), vehicle: saline 121 % of control | dose: 20.0 mg/kg/injection, schedule: Q01DX009 (ip), vehicle: saline 116 % of control | dose: 20.0 mg/kg/injection, schedule: Q04DX002 (ip), vehicle: saline 110 % of control | dose: 40.0 mg/kg/injection, schedule: Q04DX002 (ip), vehicle: saline 110 % of control

Cc1ccc2c(c1[N+](=O)[O-])C(=O)c1ccccc1C2=O
inactive: dose: 50.0 mg/kg/injection, schedule: Q01DX001 (ip), vehicle: saline 96 % of control | [1] 90 % of control | [2] 100 % of control | dose: 100.0 mg/kg/injection, schedule: Q04DX002 (ip), vehicle: Klucel (hydroxypropylcellulose) (HPC) 104 % of control | dose: 200.0 mg/kg/injection, schedule: Q01DX001 (ip), vehicle: saline 90 % of control | dose: 200.0 mg/kg/injection, schedule: Q04DX002 (ip), vehicle: Klucel (hydroxypropylcellulose) (HPC) 110 % of control | dose: 400.0 mg/kg/injection, schedule: Q01DX001 (ip), vehicle: saline 90 % of control | [3] 111 % of control | dose: 400.0 mg/kg/injection, schedule: Q04DX002 (ip), vehicle: Klucel (hydroxypropylcellulose) (HPC) 96 % of control

CC(C)(C)OC[CH2][Hg][I]
inactive: dose: 12.5 mg/kg/injection, schedule: Q04DX002 (ip), vehicle: Klucel (hydroxypropylcellulose) (HPC) 96 % of control | dose: 25.0 mg/kg/injection, schedule: Q04DX002 (ip), vehicle: Klucel (hydroxypropylcellulose) (HPC) 104 % of control

CC(=O)NCCCCCCCCCCNC(C)=O
inactive: dose: 10.0 mg/kg/injection, schedule: Q01DX Z (ip), vehicle: saline 91 % of control | dose: 30.0 mg/kg/injection, schedule: Q01DX Z (ip), vehicle: saline 95 % of control | dose: 100.0 mg/kg/injection, schedule: Q01DX Z (ip), vehicle: saline 95 % of control | dose: 300.0 mg/kg/injection, schedule: Q01DX Z (ip), vehicle: saline 98 % of control

COc1ccc(COC(=O)Nc2ccc([N+](=O)[O-])cc2OC)cc1
inactive: [2] 90 % of control | [4] 91 % of control | [3] 106 % of control

NC1=NCN(c2ccc(OCCOc3ccc([N+](=O)[O-])cc3)cc2)C(N)=N1
inactive: dose: 100.0 mg/kg/injection, schedule: Q01DX001 (ip), vehicle: Klucel (hydroxypropylcellulose) (HPC) 107 % of control | dose: 200.0 mg/kg/injection, schedule: Q01DX001 (ip), vehicle: Klucel (hydroxypropylcellulose) (HPC) 102 % of control | dose: 400.0 mg/kg/injection, schedule: Q01DX001 (ip), vehicle: Klucel (hydroxypropylcellulose) (HPC) 97 % of control

Oc1c(Cl)cc(Cl)cc1/C=C1\C=Nc2ccccc21
inactive: dose: 100.0 mg/kg/injection, schedule: Q04DX002 (ip), vehicle: saline 97 % of control | dose: 200.0 mg/kg/injection, schedule: Q04DX002 (ip), vehicle: saline 94 % of control | dose: 400.0 mg/kg/injection, schedule: Q04DX002 (ip), vehicle: saline 102 % of control

O=C1CC(c2ccc(Cl)cc2)NC(c2ccc(Cl)cc2)C1 (stereo not drawn)
inactive: [5] 101 % of control | [6] 93 % of control | [7] 101 % of control | [8] 96 % of control | dose: 400.0 mg/kg/injection, schedule: Q01DX009 (ip), vehicle: saline with Tween-80 103 % of control | [9] 98 % of control

CC(=O)c1cc(C)c(C)cc1C
inactive: dose: 100.0 mg/kg/injection, schedule: Q01DX001 (ip), vehicle: carboxymethylcellulose (CMC) 100 % of control | dose: 200.0 mg/kg/injection, schedule: Q01DX001 (ip), vehicle: carboxymethylcellulose (CMC) 94 % of control | dose: 400.0 mg/kg/injection, schedule: Q01DX001 (ip), vehicle: carboxymethylcellulose (CMC) 97 % of control

CCN1C(=O)/C(=C/c2ccncc2)SC1=S
inactive: dose: 50.0 mg/kg/injection, schedule: Q01DX Z (ip), vehicle: carboxymethylcellulose (CMC) 96 % of control | dose: 100.0 mg/kg/injection, schedule: Q01DX Z (ip), vehicle: carboxymethylcellulose (CMC) 92 % of control | dose: 200.0 mg/kg/injection, schedule: Q01DX Z (ip), vehicle: carboxymethylcellulose (CMC) 94 % of control | dose: 400.0 mg/kg/injection, schedule: Q01DX Z (ip), vehicle: carboxymethylcellulose (CMC) 91 % of control

Cc1cc(C)c(C(Br)C(Br)c2c(C)cc(C)cc2C)c(C)c1 (stereo not drawn)
inactive: dose: 12.5 mg/kg/injection, schedule: Q01DX009 (ip), vehicle: saline with Tween-80 88 % of control | dose: 12.5 mg/kg/injection, schedule: Q04DX003 (ip), vehicle: saline with Tween-80 98 % of control | dose: 25.0 mg/kg/injection, schedule: Q01DX009 (ip), vehicle: saline with Tween-80 87 % of control | dose: 25.0 mg/kg/injection, schedule: Q04DX003 (ip), vehicle: saline with Tween-80 93 % of control | [10] 91 % of control

COc1cc([N+](=O)[O-])ccc1C#N
inactive: [11] 113 % of control | [12] 96 % of control

CCCCCCCCCCCCCCCNC1=C(OC)C(=O)C(NCCCCCCCCCCCCCCC)=C(OC)C1=O
inactive: [13] 90 % of control | [14] 93 % of control | [15] 96 % of control

COc1ccc(C(=O)Nc2ccc(Br)cc2)cc1
inactive: [6] 97 % of control | [8] 95 % of control | [9] 105 % of control

Cc1cc2oc(C)[n+](Cc3ccccc3)c2cc1C
inactive: [5] 105 % of control and 86 % of control | [6] 97 % of control | [7] 96 % of control and 110 % of control | [8] 95 % of control | [9] 95 % of control

CCOC(=O)c1ccc(NC(=O)c2ccc(Cl)cc2Cl)cc1
inactive: [10] 102 % of control | [5] 96 % of control and 90 % of control | dose: 100.0 mg/kg/injection, schedule: Q04DX002 (ip), vehicle: saline with Tween-80 93 % of control and 113 % of control | [6] 98 % of control | [7] 97 % of control and 110 % of control | dose: 200.0 mg/kg/injection, schedule: Q04DX002 (ip), vehicle: saline with Tween-80 95 % of control and 91 % of control | [8] 98 % of control | dose: 400.0 mg/kg/injection, schedule: Q04DX002 (ip), vehicle: saline with Tween-80 102 % of control and 92 % of control

C=C1CCC2(C(C)C)CC12 (stereo not drawn)
inactive: dose: 100.0 mg/kg/injection, schedule: Q01DX009 (ip), vehicle: saline 103 % of control | dose: 100.0 mg/kg/injection, schedule: Q04DX003 (ip), vehicle: saline 96 % of control | dose: 200.0 mg/kg/injection, schedule: Q01DX009 (ip), vehicle: saline 93 % of control | dose: 200.0 mg/kg/injection, schedule: Q04DX003 (ip), vehicle: saline 110 % of control | dose: 400.0 mg/kg/injection, schedule: Q01DX009 (ip), vehicle: saline 94 % of control | dose: 400.0 mg/kg/injection, schedule: Q04DX003 (ip), vehicle: saline 100 % of control

O=C(O)C(Br)CBr (stereo not drawn)
inactive: [1] 90 % of control

S=c1[nH]c(=S)c2[nH]cnc2[nH]1
inactive: dose: 50.0 mg/kg/injection, schedule: Q01DX001 (ip), vehicle: other 113 % of control | dose: 50.0 mg/kg/injection, schedule: Q01DX009 (ip), vehicle: other 94 % of control | [13] 101 % of control | dose: 100.0 mg/kg/injection, schedule: Q01DX009 (ip), vehicle: other 96 % of control | [14] 103 % of control | dose: 200.0 mg/kg/injection, schedule: Q01DX009 (ip), vehicle: other 97 % of control | [15] 107 % of control | dose: 400.0 mg/kg/injection, schedule: Q01DX009 (ip), vehicle: other 102 % of control | dose: 600.0 mg/kg/injection, schedule: Q01DX001 (ip), vehicle: other 100 % of control | dose: 1200.0 mg/kg/injection, schedule: Q01DX001 (ip), vehicle: other 117 % of control

CCOC(=O)Nc1ccc(OC)cc1
inactive: [2] 96 % of control | [11] 103 % of control | [4] 98 % of control | dose: 200.0 mg/kg/injection, schedule: Q04DX003 (ip), vehicle: Klucel (hydroxypropylcellulose) (HPC) 97 % of control | [3] 93 % of control | [12] 98 % of control

CN(CCC(C#N)c1ccccc1)C(=O)c1ccccc1 (stereo not drawn)
inactive: dose: 75.0 mg/kg/injection, schedule: Q01DX001 (ip), vehicle: saline 98 % of control | dose: 150.0 mg/kg/injection, schedule: Q01DX001 (ip), vehicle: saline 96 % of control
